This experiment deals with T1, human calcium-sensing receptor (CaSR) (Homo sapiens, UniProt P41180).
T1 construct: expressed in transfected cells
T1 sequence (P41180 20-1078): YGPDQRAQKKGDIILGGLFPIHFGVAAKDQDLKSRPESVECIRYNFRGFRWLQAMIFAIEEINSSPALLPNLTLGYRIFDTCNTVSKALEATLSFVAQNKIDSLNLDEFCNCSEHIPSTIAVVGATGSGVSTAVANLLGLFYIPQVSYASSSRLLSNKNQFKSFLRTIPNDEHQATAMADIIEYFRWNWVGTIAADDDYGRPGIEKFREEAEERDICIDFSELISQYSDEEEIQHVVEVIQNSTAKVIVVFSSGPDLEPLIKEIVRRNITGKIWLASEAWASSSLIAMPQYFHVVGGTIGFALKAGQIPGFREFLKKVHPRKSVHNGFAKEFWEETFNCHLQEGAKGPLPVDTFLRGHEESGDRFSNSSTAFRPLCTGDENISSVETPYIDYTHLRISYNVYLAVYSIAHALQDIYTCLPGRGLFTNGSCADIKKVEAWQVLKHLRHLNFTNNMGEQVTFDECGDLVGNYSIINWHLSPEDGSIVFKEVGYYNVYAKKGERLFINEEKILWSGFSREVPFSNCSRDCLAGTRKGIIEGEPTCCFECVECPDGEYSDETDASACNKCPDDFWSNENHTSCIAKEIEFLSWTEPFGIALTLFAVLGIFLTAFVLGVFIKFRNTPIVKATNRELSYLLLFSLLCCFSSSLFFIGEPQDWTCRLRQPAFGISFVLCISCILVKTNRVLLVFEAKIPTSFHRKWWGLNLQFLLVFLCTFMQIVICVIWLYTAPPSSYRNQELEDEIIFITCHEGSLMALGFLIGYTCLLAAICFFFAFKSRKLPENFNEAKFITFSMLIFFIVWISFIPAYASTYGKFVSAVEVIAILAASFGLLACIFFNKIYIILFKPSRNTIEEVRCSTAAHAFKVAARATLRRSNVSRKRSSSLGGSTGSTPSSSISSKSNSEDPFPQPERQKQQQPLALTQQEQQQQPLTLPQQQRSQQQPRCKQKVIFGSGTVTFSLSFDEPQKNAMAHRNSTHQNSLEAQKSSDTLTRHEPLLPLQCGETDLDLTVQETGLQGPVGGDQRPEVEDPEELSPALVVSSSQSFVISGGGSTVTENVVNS
The experiment can be described thus: Inhibitory activity on calcium-sensing receptor (CaSR), intracellular calcium increase as indicator (FLIPR, CHO/hCaSR). Type of experiment: cell-based. The conditions noted are these: CHO cells stably expressing human CaSR; inhibition of intracellular Ca increase induced by extracellular CaCl2. Here is the method:
Evaluation of inhibitory activity on calcium-sensing receptor (CaSR) using intracellular calcium increase as an indicator
The preparation which is prepared by adding CHO/hCaSR to F12 medium (manufactured by Invitrogen) containing 10% fetal bovine serum to have 2×10^5 cells/mL was applied to a 384-well in an amount of 50 μL/well, and then incubated overnight in a CO2 incubator. The culture supernatant was completely removed, the assay buffer (20 mM HEPES, HBSS (Ca and Mg free) containing 2.5 mM probenecid, pH 7.4) containing Calcium 3 (manufactured by Molecular Devices), i.e., a fluorescent intracellular calcium indicator, was added thereto in an amount of 25 μL/well, and the mixture was maintained for 1 hour in a CO2 incubator. Meanwhile, Calcium 3 was prepared according to the protocol enclosed in FLIPR Calcium 3 Assay Kit (manufactured by Molecular Devices). After maintaining it for 1 hour, a solution in which the test compound is prepared to have 2.1 to 20,000 nM (final concentration of 1.05 to 10,000 nM) by an assay buffer was added thereto in an amount of 25 μL/well, and maintained for 15 minutes in a CO2 incubator. Then, the CaCl2 solution prepared to have […] by using the assay buffer was added in an amount of 25 μL/well, and the resulting intracellular Ca increase (i.e., fluorescence intensity) was measured over time using a fluorescence imaging plate reader (FLIPR, manufactured by Molecular Devices). From the data obtained, the difference between the fluorescence intensity before the addition of CaCl2 solution and the maximum fluorescence intensity after the addition of CaCl2 solution was calculated, and the 50% inhibition concentration (IC50) of the test compound was obtained.
(Calcium assays in cells follow changes in intracellular calcium, usually with a dye or a luminescent sensor.)

pIC50: −log10 of the molar value.

For orientation: pIC50 means −log10 of the IC50, conventionally taken in molar units. `CC[C@@H](OC[C@H](O)CN1CCC[C@H]1Cc1ccc(Cl)c(Cl)c1)c1cc(F)c(C)cc1CCC(=O)O` [Example 118]: the pIC50 is not below 5.52.

As for `Cc1ccc(C[C@@H]2CCCN2C[C@@H](O)CO[C@H](C)c2cccc(F)c2CCC(=O)O)cc1F` [Example 6, 3-{2-Fluoro-6-[(1R)-1-({(2R)-3-[(2S)-2-(3-fluoro-4-methylbenzyl)pyrrolidin-1-yl]-2-hydroxypropyl}oxy)ethyl]phenyl}propanoic acid], the pIC50 was not below 5.46.

On to `CCc1cc(C[C@@H]2CCCN2C[C@@H](O)CO[C@H](C)c2cccc(C)c2CCC(=O)O)ccc1Cl` [Example 163], for which the negative-log IC50 (pIC50) is not below 5.48.

With `CCc1cc(C[C@@H]2CCCN2C[C@@H](O)CO[C@H](C)c2ccc(Cl)cc2CCC(=O)O)ccc1Cl` [Example 161], the pIC50 was not below 5.50.

Consider `Cc1ccc(C[C@@H]2CCCN2C[C@@H](O)CO[C@H](C)c2cccc(Cl)c2CCC(=O)O)cc1F` [Example 80], for which the negative logarithm of the IC50 (pIC50) is not below 5.48.

On to `C[C@@H](OC[C@H](O)CN1CCC[C@H]1Cc1ccc(Cl)c(Cl)c1)c1ccccc1CCC(=O)O` [Example 88], for which the pIC50 was not below 5.48.

Regarding `CC[C@@H](OC[C@H](O)CN1CCC[C@H]1Cc1ccc(C)c(F)c1)c1cc(Cl)ccc1CCC(=O)O` [Example 94], the pIC50 is not below 5.49.

Consider `Cc1ccc([C@@H](C)OC[C@H](O)CN2CCC[C@H]2Cc2ccc(C)c(Cl)c2)c(CCC(=O)O)c1` [Example 126], for which the pIC50 is not below 5.47.

On to `C[C@@H](OC[C@H](O)CN1CCC[C@H]1Cc1ccc(F)c(Cl)c1)c1ccccc1CCC(=O)O` [Example 83], for which the pIC50 is not below 5.46.

Turning to `CCc1cc(C[C@@H]2CCCN2C[C@@H](O)CO[C@H](C)c2cccc(OC)c2CCC(=O)O)ccc1Cl` [Example 165], the pIC50 was not below 5.50.

`CCOc1cccc([C@@H](C)OC[C@H](O)CN2CCC[C@H]2Cc2ccc(C)c(F)c2)c1CCCCC(=O)O` [Example 72]: the pIC50 is not below 5.51.

For the molecule `CC[C@@H](OC[C@H](O)CN1CCC[C@H]1Cc1ccc(C)c(F)c1)c1cccc(F)c1CCC(=O)O` [Example 44], the pIC50 was not below 5.47.

As to `C[C@@H](OC[C@H](O)CN1CCC[C@H]1Cc1ccc(Cl)c(F)c1)c1cc(F)cc(F)c1CCC(=O)O` [Example 133], the pIC50 is not below 5.49.

As to `CCC[C@@H](OC[C@H](O)CN1CCC[C@H]1Cc1ccc(C)c(F)c1)c1ccc(Cl)cc1CCC(=O)O` [Example 124], the pIC50 is not below 5.50.

Regarding `CC[C@@H](OC[C@H](O)CN1CCC[C@H]1Cc1ccc(C)c(Cl)c1)c1cc(F)ccc1CCC(=O)O` [Example 134], the pIC50 was not below 5.49.

In the case of `C[C@@H](OC[C@H](O)CN1CCC[C@H]1Cc1ccc(Cl)c(F)c1)c1ccccc1CCC(=O)O` [Example 159], the pIC50 was not below 5.46.

`Cc1ccc(C[C@@H]2CCCN2C[C@@H](O)COC(C)c2c(CCC(=O)O)ccc(F)c2F)cc1F` (some centres unmarked) [Example 34]: the pIC50 is not below 5.48.

As to `CCC[C@@H](OC[C@H](O)CN1CCC[C@H]1Cc1ccc(C)c(F)c1)c1cccc(OC)c1CCC(=O)O` [Example 65], the pIC50 is not below 5.50.

As for `Cc1ccc(C[C@@H]2CCCN2C[C@@H](O)CO[C@H](C)c2cccc(C)c2CCCCC(=O)O)cc1F` [Example 57], the negative logarithm of the IC50 (pIC50) is not below 5.48.

In the case of `Cc1ccc(C[C@@H]2CCCN2C[C@@H](O)CO[C@H](C)c2cc(F)c(C)cc2CCCCC(=O)O)cc1F` [Example 23], the pIC50 is not below 5.50.

Turning to `CCc1cc(C[C@@H]2CCCN2C[C@@H](O)CO[C@H](CC)c2cc(F)c(F)cc2CCC(=O)O)ccc1Cl` [Example 121], the negative-log IC50 (pIC50) was not below 5.52.

`Cc1ccc([C@@H](C)OC[C@H](O)CN2CCC[C@H]2Cc2ccc(C)c(F)c2)c(CCCCC(=O)O)c1` [Example 53]: the pIC50 was not below 5.48.

Regarding `CC[C@@H](OC[C@H](O)CN1CCC[C@H]1Cc1ccc(C)c(Cl)c1)c1ccc(Cl)cc1CCC(=O)O` [Example 129], the negative logarithm of the IC50 (pIC50) is not below 5.50.

Take `CC[C@@H](OC[C@H](O)CN1CCC[C@H]1Cc1ccc(C)c(Cl)c1)c1cccc(C)c1CCC(=O)O` [Example 172]: the pIC50 was not below 5.48.

For `COc1cccc([C@@H](C)OC[C@H](O)CN2CCC[C@H]2Cc2ccc(Cl)c(F)c2)c1CCC(=O)O` [Example 168], the pIC50 was not below 5.49.

As for `CC[C@@H](OC[C@H](O)CN1CCC[C@H]1Cc1ccc(Cl)c(Cl)c1)c1cccc(C)c1CCC(=O)O` [Example 120], the pIC50 is not below 5.50.

Take `Cc1ccc(C[C@@H]2CCCN2C[C@@H](O)CO[C@H](C)c2ccccc2/C=C/C(=O)O)cc1F` [Example 1, (2E)-3-{2-[(1R)-1-({(2R)-3-[(2S)-2-(3-Fluoro-4-methylbenzyl)pyrrolidin-1-yl]-2-hydroxypropyl}oxy)ethyl]phenyl}prop-2-enoic acid]: the negative-log IC50 (pIC50) is not below 5.44.

In the case of `Cc1ccc(C[C@@H]2CCCN2C[C@@H](O)CO[C@H](C)c2cc(F)ccc2CCCCC(=O)O)cc1F` [Example 55], the negative logarithm of the IC50 (pIC50) was not below 5.49.

Take `Cc1ccc(C[C@@H]2CCCN2C[C@@H](O)CO[C@H](C)c2cc(C(F)(F)F)ccc2CCCCC(=O)O)cc1F` [Example 60]: the pIC50 was not below 5.53.

Turning to `C[C@@H](OC[C@H](O)CN1CCC[C@H]1Cc1ccc(Cl)c(Cl)c1)c1cc(F)cc(F)c1CCC(=O)O` [Example 106], the pIC50 is not below 5.51.

For `C[C@@H](OC[C@H](O)CN1CCC[C@H]1Cc1ccc(Cl)c(Cl)c1)c1ccc(Cl)cc1CCC(=O)O` [Example 160], the negative-log IC50 (pIC50) is not below 5.51.

As for `CC[C@@H](OC[C@H](O)CN1CCC[C@H]1Cc1ccc(Cl)c(Cl)c1)c1cccc(Cl)c1CCC(=O)O` [Example 113], the pIC50 is not below 5.52.

For the molecule `CC[C@@H](OC[C@H](O)CN1CCC[C@H]1Cc1ccc(Cl)c(Cl)c1)c1cccc(F)c1CCC(=O)O` [Example 108], the negative-log IC50 (pIC50) was not below 5.51.

Turning to `Cc1ccc(C[C@@H]2CCCN2C[C@@H](O)CO[C@H](C)c2ccccc2CCCCCC(=O)O)cc1F` [Example 76], the pIC50 is not below 5.48.

As for `CCc1cc(C[C@@H]2CCCN2C[C@@H](O)CO[C@H](CC)c2cccc(Cl)c2CCC(=O)O)ccc1Cl` [Example 114], the pIC50 is not below 5.51.

`Cc1ccc(C[C@@H]2CCCN2C[C@@H](O)CO[C@H](C)c2ccc(F)cc2CCCCC(=O)O)cc1F` [Example 54]: the pIC50 was not below 5.49.

As for `CCc1cc(C[C@@H]2CCCN2C[C@@H](O)CO[C@H](CC)c2ccc(Cl)cc2CCC(=O)O)ccc1Cl` [Example 101], the negative logarithm of the IC50 (pIC50) was not below 5.51.

Regarding `CCc1cc(C[C@@H]2CCCN2C[C@@H](O)CO[C@H](CC)c2cc(F)c(C)cc2CCC(=O)O)ccc1Cl` [Example 119], the pIC50 was not below 5.51.

On to `Cc1ccc(C[C@@H]2CCCN2C[C@@H](O)CO[C@H](C)c2cc(F)c(F)cc2CCC(=O)O)cc1F` [Example 26], for which the pIC50 is not below 5.48.

Regarding `CC[C@@H](OC[C@H](O)CN1CCC[C@H]1Cc1ccc(C)c(F)c1)c1ccc(C)cc1CCC(=O)O` [Example 45], the pIC50 was not below 5.47.

`Cc1cccc([C@@H](C)OC[C@H](O)CN2CCC[C@H]2Cc2ccc(Cl)c(F)c2)c1CCC(=O)O` [Example 170]: the pIC50 is not below 5.48.

Turning to `CC[C@@H](OC[C@H](O)CN1CCC[C@H]1Cc1ccc(C)c(Cl)c1)c1cccc(F)c1CCC(=O)O` [Example 138], the negative logarithm of the IC50 (pIC50) is not below 5.49.

Take `COc1cccc([C@@H](C)OC[C@H](O)CN2CCC[C@H]2Cc2ccc(Cl)c(Cl)c2)c1CCC(=O)O` [Example 164]: the pIC50 is not below 5.50.

On to `CCC[C@@H](OC[C@H](O)CN1CCC[C@H]1Cc1ccc(C)c(F)c1)c1cccc(Cl)c1CCC(=O)O` [Example 125], for which the pIC50 was not below 5.50.

Source of the values: patent US8173631B2, “Cyclic amine compounds” (Daiichi Sankyo Company, Limited, priority 2008, dated 2012).
